Test results: ChEMBL document CHEMBL5537134, “Targeting the pyruvate dehydrogenase complex/pyruvate dehydrogenase kinase (PDC/PDK) axis to discover potent PDK inhibitors through structure-based virtual screening and pharmacological evaluation” (Eur J Med Chem, 2024)
Blank lines part the entries; values can stand above or below the compound they belong to. Active and inactive are the calls of the source. No cut-off for these calls is given here.

What was measured:
[1] = target: T1, [Pyruvate dehydrogenase (acetyl-transferring)] kinase isozyme 1, mitochondrial (Homo sapiens, UniProt Q15118); experiment: Inhibition of recombinant full-length human PDK1 (1 to 436 residues) expressed in baculovirus infected Sf9 insect cells using PDHA1 as substrate at 10 uM incubated for 1 hrs in presence of ATP by Kinase-Glo luminescence assay
[2] = Toxicity in Balb/c mouse assessed as pathological abnormality in heart at 50 mg/kg, ip administered for 7 days by hematoxylin and eosin staining based analysis; assay type: organism-based; conditions: in vivo, 168 h, time 7 day
A549 [3] = experiment: Anticancer activity against human A549 cells assessed as inhibition of cell growth at 20 uM by IncuCyte Zoom live cell imaging analysis; assay type: functional, cell-based; conditions: time 24-72 hrs, TDE = time-dependent effect
Cell membrane [4] = experiment: Induction of mitochondrial membrane depolarization in human A549 cells assessed as decrease in lactate formation incubated for 8 hrs by NovaBioprofile Flex analyzer method; assay type: cell membranes; conditions: dose 10-40 µM
A549 [5] = experiment: Induction of apoptosis in human A549 cells at 20 uM incubated for 24 hrs by Annexin V-FITC/Propidium Iodide staining based flow cytometry analysis relative to control; assay type: functional
[6] = Toxicity in Balb/c mouse assessed as pathological abnormality in lung at 50 mg/kg, ip administered for 7 days by hematoxylin and eosin staining based analysis; assay type: organism-based; conditions: in vivo, 168 h, time 7 day
[7] = Toxicity in Balb/c mouse assessed as pathological abnormality in liver at 50 mg/kg, ip administered for 7 days by hematoxylin and eosin staining based analysis; assay type: organism-based; conditions: in vivo, 168 h, time 7 day
A549 [8] = experiment: Induction of apoptosis in human A549 cells assessed as apoptotic cells at 20 uM incubated for 48 hrs by Annexin V-FITC/Propidium Iodide staining based flow cytometry analysis relative to control; assay type: functional
Cell membrane [9] = experiment: Induction of mitochondrial membrane depolarization in human A549 cells assessed as increase in green fluorescence intensity at 5 to 20 uM incubated for 4 hrs by JC-1 staining based laser scanning confocal microscope analysis; assay type: cell membranes; conditions: dose 5-20 µM
Cell membrane [10] = experiment: Induction of mitochondrial membrane depolarization in human A549 cells assessed as increase in JC-1 monomer incubated for 4 hrs by JC-1 staining based flow cytometry analysis; assay type: cell membranes; conditions: dose 5-20 µM
A549 [11] = experiment: Induction of cell cycle arrest in human A549 cells assessed as accumulation of cells at G1 phase at 7.5 uM incubated for 24 hrs by Propidium Iodide staining based flow cytometry analysis (reference value: 49.88 %); assay type: functional
[12] = Toxicity in Balb/c mouse assessed as pathological abnormality in kidney at 50 mg/kg, ip administered for 7 days by hematoxylin and eosin staining based analysis; assay type: organism-based; conditions: in vivo, 168 h, time 7 day
A549 [13] = experiment: Induction of cell cycle arrest in human A549 cells assessed as accumulation of cells at G2 phase at 7.5 uM incubated for 24 hrs by Propidium Iodide staining based flow cytometry analysis (reference value: 13.19 %); assay type: functional
Cell membrane [14] = experiment: Induction of mitochondrial membrane depolarization in human A549 cells assessed as increase in oxygen consumption rate by Seahorse XFe96 extracellular flux analyzer method; assay type: cell membranes; conditions: dose 10-40 µM
[15] = Toxicity in Balb/c mouse assessed as pathological abnormality in spleen at 50 mg/kg, ip administered for 7 days by hematoxylin and eosin staining based analysis; assay type: organism-based; conditions: in vivo, 168 h, time 7 day
[16] = Toxicity in Balb/c mouse assessed as death at 50 mg/kg, ip administered for 7 days; assay type: organism-based; conditions: in vivo, 168 h, time 7 day
[17] = Toxicity in Balb/c mouse assessed as change in body weight at 50 mg/kg, ip administered for 7 days; assay type: organism-based; conditions: in vivo, 168 h, time 7 day
A549 [18] = experiment: Antiproliferative activity against human A549 cells assessed as reduction in cell viability at 40 uM incubated for 72 hrs by MTT assay; assay type: functional, cell-based
A549 [19] = experiment: Induction of cell cycle arrest in human A549 cells assessed as accumulation of cells at S phase at 5 uM incubated for 24 hrs by Propidium Iodide staining based flow cytometry analysis (reference value: 36.92 %); assay type: functional
A549 [20] = experiment: Induction of apoptosis in human A549 cells incubated for 48 hrs by Annexin V-FITC/Propidium Iodide staining based flow cytometry analysis; assay type: functional, cell-based; conditions: dose 5-20 µM
A549 [21] = experiment: Induction of cell cycle arrest in human A549 cells assessed as accumulation of cells at G1 phase at 10 uM incubated for 24 hrs by Propidium Iodide staining based flow cytometry analysis (reference value: 49.88 %); assay type: functional
BEAS-2B = experiment: Cytotoxicity against human BEAS-2B cells assessed as reduction in cell viability upto 50 uM incubated for 72 hrs by MTT assay; assay type: toxicity, cell-based
A549 [22] = experiment: Induction of apoptosis in human A549 cells at 20 uM by Annexin V-FITC/Propidium Iodide staining based flow cytometry analysis; assay type: functional, cell-based; conditions: time 12-48 hrs, TDE = time-dependent effect
[23] = Toxicity in Balb/c mouse assessed as clinical signs at 50 mg/kg, ip administered for 7 days; assay type: organism-based; conditions: in vivo, 168 h, time 7 day
A549 [24] = experiment: Induction of apoptosis in human A549 cells assessed as apoptotic cells at 10 uM incubated for 48 hrs by Annexin V-FITC/Propidium Iodide staining based flow cytometry analysis relative to control; assay type: functional
A549 [25] = experiment: Induction of apoptosis in human A549 cells assessed as apoptotic cells at 5 uM incubated for 48 hrs by Annexin V-FITC/Propidium Iodide staining based flow cytometry analysis relative to control; assay type: functional
A549 [26] = experiment: Induction of apoptosis in human A549 cells at 20 uM incubated for 12 hrs by Annexin V-FITC/Propidium Iodide staining based flow cytometry analysis relative to control; assay type: functional
Cell membrane [27] = experiment: Induction of mitochondrial membrane depolarization in human A549 cells assessed as decrease in extracellular acidification by Seahorse XFe96 extracellular flux analyzer method; assay type: cell membranes; conditions: dose 10-40 µM
A549 [28] = experiment: Induction of cell cycle arrest in human A549 cells assessed as accumulation of cells at S phase at 7.5 uM incubated for 24 hrs by Propidium Iodide staining based flow cytometry analysis (reference value: 36.92 %); assay type: functional
A549 [29] = experiment: Induction of cell cycle arrest in human A549 cells assessed as accumulation of cells at G2 phase at 5 uM incubated for 24 hrs by Propidium Iodide staining based flow cytometry analysis (reference value: 13.19 %); assay type: functional
A549 [30] = experiment: Induction of cell cycle arrest in human A549 cells assessed as accumulation of cells at S phase at 10 uM incubated for 24 hrs by Propidium Iodide staining based flow cytometry analysis (reference value: 36.92 %); assay type: functional
A549 [31] = experiment: cells; conditions: Homo sapiens
Description: Anticancer activity against human A549 cells assessed as inhibition of cell growth incubated for 24 to 72 hrs by IncuCyte Zoom live cell imaging analysis

[32] = target: [Pyruvate dehydrogenase (acetyl-transferring)] kinase isozyme 2, mitochondrial (Homo sapiens, UniProt Q15119); experiment: Inhibition of recombinant full length human PDK2 (1 to 407 residues) expressed in baculovirus infected Sf9 cells using PDHA1 as substrate incubated for 1 hrs in presence of ATP by ADP-Glo luminescence assay
A549 [33] = experiment: Induction of cell cycle arrest in human A549 cells assessed as accumulation of cells at G2 phase at 10 uM incubated for 24 hrs by Propidium Iodide staining based flow cytometry analysis (reference value: 13.19 %); assay type: functional
A549 [34] = experiment: Induction of cell cycle arrest in human A549 cells assessed as accumulation of cells at G1 phase at 5 uM incubated for 24 hrs by Propidium Iodide staining based flow cytometry analysis (reference value: 49.88 %); assay type: functional
Cell membrane [35] = experiment: Induction of mitochondrial membrane depolarization in human A549 cells assessed as disappearance of red fluorescence at 5 to 20 uM incubated for 4 hrs by TMRM staining based laser scanning confocal microscope analysis; assay type: cell membranes; conditions: dose 5-20 µM
A549 [36] = experiment: Antiproliferative activity against human A549 cells assessed as reduction in cell viability incubated for 72 hrs under hypoxic condition by MTT assay; conditions: A549, 72 h
A549 [37] = experiment: Anticancer activity against human A549 cells assessed as reduction in cell growth at 20 uM by IncuCyte Zoom live cell imaging analysis; assay type: functional, cell-based
[38] = target: T1, [Pyruvate dehydrogenase (acetyl-transferring)] kinase isozyme 1, mitochondrial; experiment: Binding affinity to PDK1 (unknown origin) assessed as dissociation constant in presence of 5-((4-chlorophenyl)sulfonamido)-N-(2-hydroxyethyl)-2,4-dimethylbenzenesulfonamide
[39] = target: T1, [Pyruvate dehydrogenase (acetyl-transferring)] kinase isozyme 1, mitochondrial; experiment: Binding affinity to PDK1 (unknown origin) assessed as dissociation constant
[40] = target: T1, [Pyruvate dehydrogenase (acetyl-transferring)] kinase isozyme 1, mitochondrial; experiment: Inhibition of recombinant full-length human PDK1 (1 to 436 residues) expressed in baculovirus infected Sf9 insect cells using PDHA1 as substrate incubated for 1 hrs in presence of ATP by Kinase-Glo luminescence assay
[41] = target: T1, [Pyruvate dehydrogenase (acetyl-transferring)] kinase isozyme 1, mitochondrial; experiment: Inhibition of 6His-tagged full length PDK1 (unknown origin) expressed in Escherichia coli in presence of ATP by ELISA based kinase activity assay
A549 [42] = experiment: Antiproliferative activity against human A549 cells assessed as reduction in cell viability incubated for 72 hrs by CCK8 assay; assay type: functional, cell-based; conditions: A549, 72 h

T1 sequence (Q15118 whole entry, the tested form may be a part): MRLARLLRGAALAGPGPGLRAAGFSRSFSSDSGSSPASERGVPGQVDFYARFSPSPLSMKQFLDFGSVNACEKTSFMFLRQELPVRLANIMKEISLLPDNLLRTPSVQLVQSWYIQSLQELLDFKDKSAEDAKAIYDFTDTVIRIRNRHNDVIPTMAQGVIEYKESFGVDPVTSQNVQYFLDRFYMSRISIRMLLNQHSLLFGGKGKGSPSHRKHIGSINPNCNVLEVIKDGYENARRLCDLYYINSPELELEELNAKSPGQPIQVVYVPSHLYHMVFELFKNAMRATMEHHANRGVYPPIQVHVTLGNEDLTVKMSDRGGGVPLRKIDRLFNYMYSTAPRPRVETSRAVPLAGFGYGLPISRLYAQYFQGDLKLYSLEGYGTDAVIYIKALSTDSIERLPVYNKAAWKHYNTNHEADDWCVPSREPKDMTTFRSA

inhibition [1]: Active
SMILES: O=C(c1cccc(S(=O)(=O)Nc2cc(Cl)ccc2Cl)c1)N1CCN(CCO)CC1

Kd [38]: 8.9 µM
Kd [39]: 148 nM
IC50 [40]: 32.3 nM
IC50 [32]: 74.5 nM
SMILES: CN(C)C(=O)c1ccc(S(=O)(=O)c2ccc(NC(=O)[C@@](C)(O)C(F)(F)F)c(Cl)c2)cc1
Activity (A549 [37]): inactive
Activity (A549 [21]): 68.5%
Activity (A549 [30]): 18.03%
Activity (A549 [33]): 13.47%

EC50 [41]: 49 nM
IC50 (A549 [42]): < 500 nM
SMILES: S=C(SSC(=S)N1CCOCC1)N1CCOCC1

More lines, now with the values behind:

SMILES: Cc1cc(C)c(S(=O)(=O)NCCO)cc1NS(=O)(=O)c1ccc(Cl)cc1
Activity [2]: Non-Toxic
Activity (A549 [3]): Tde
Activity (Cell membrane [4]): Dose-Dependent Effect
Activity (A549 [5]): 60%
Activity [6]: Non-Toxic
Activity [7]: Non-Toxic
Activity (A549 [8]): 80.5%
Activity (Cell membrane [9]): Active
Activity (Cell membrane [10]): Dose-Dependent Effect
Activity (A549 [11]): 49.65%
Activity [12]: Non-Toxic
Activity (A549 [13]): 7.98%
Activity (Cell membrane [14]): Dose-Dependent Effect
Activity [15]: Non-Toxic
Activity [16]: Non-Toxic
Activity [17]: Non-Toxic
Activity (A549 [18]): Active
Activity (A549 [19]): 32.44%
Activity (A549 [20]): Dose-Dependent Effect
Activity (A549 [21]): 47.77%
Activity (BEAS-2B): Non-Toxic
Activity (A549 [22]): Tde
Activity [23]: Non-Toxic
Activity (A549 [24]): 23.8%
Activity (A549 [25]): 8.8%
Activity (A549 [26]): 10.8%
Activity (Cell membrane [27]): Dose-Dependent Effect
Activity (A549 [28]): 42.37%
Activity (A549 [29]): 12.31%
Activity (A549 [30]): 50.66%
EC50 (A549 [31]): 10.7 µM
IC50 [32]: 136 nM
Activity (A549 [33]): 1.58%
Activity (A549 [34]): 55.25%
Activity (Cell membrane [35]): Active
IC50 (A549 [36]): 5.67 µM

SMILES: CC(C)[C@H](NC(=O)N1CCN(C(c2ccc(F)cc2)c2ccc(F)cc2)CC1)C(=O)O
Activity (A549 [18]): Active
